Read-outs that look alike come from different tables or passages of the source.
Key:
[1] = target: T1, A2A (adenosine 2A receptor) (Homo sapiens, UniProt P29274); experiment: SafetyScreen44: A2A; type: binding
T1 construct: purchased Eurofins Cerep SafetyScreen44

[2] = target: T2, β2 (beta-2 adrenergic receptor) (Homo sapiens, UniProt P07550); experiment: SafetyScreen44: β2; type: binding
T2 construct: purchased Eurofins Cerep SafetyScreen44

[3] = target: T3, D1 (dopamine D1 receptor) (Homo sapiens, UniProt P21728); experiment: SafetyScreen44: D1; type: binding
T3 construct: purchased Eurofins Cerep SafetyScreen44

[4] = target: T4, D2S (short dopamine D2 receptor) (Homo sapiens, UniProt P14416); experiment: SafetyScreen44: D2S; type: binding
T4 construct: purchased Eurofins Cerep SafetyScreen44

[5] = target: T5, M3 (muscarinic acetylcholine receptor M3) (Homo sapiens, UniProt P20309); experiment: SafetyScreen44: M3; type: binding
T5 construct: purchased Eurofins Cerep SafetyScreen44

[6] = target: T6, 5-HT1A (serotonin 1A receptor) (Homo sapiens, UniProt P08908); experiment: SafetyScreen44: 5-HT1A; type: binding
T6 construct: purchased Eurofins Cerep SafetyScreen44
T6 sequence (P08908 1-422): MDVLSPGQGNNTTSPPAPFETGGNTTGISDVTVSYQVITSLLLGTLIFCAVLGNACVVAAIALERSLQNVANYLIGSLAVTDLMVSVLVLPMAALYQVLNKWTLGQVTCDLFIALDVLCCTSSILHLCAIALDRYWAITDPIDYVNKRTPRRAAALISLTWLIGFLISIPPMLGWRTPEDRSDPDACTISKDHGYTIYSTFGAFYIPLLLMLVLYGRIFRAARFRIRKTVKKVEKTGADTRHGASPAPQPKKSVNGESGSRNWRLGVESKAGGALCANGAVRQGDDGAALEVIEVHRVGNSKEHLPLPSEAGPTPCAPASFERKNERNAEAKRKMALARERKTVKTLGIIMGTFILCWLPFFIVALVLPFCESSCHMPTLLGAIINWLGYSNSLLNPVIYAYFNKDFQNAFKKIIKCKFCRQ

Dopamine transporter = target: T7, Dopamine transporter (Homo sapiens, UniProt Q01959); experiment: SafetyScreen44: dopamine transporter; type: binding
T7 construct: purchased Eurofins Cerep SafetyScreen44

[7] = target: T8, PDE3A (phosphodiesterase 3A) (Homo sapiens, UniProt Q14432); experiment: SafetyScreen44: PDE3A; type: biochemical
T8 construct: purchased Eurofins Cerep SafetyScreen44

acetylcholinesterase = target: T9, acetylcholinesterase (Homo sapiens, UniProt P22303); experiment: SafetyScreen44: acetylcholinesterase; type: biochemical
T9 construct: purchased Eurofins Cerep SafetyScreen44

[8] = Rat pharmacokinetic and tissue distribution study, oral dosing
Procedure: Table S2. […] Plasma, small intestine, colon, and colon contents were sampled at terminal time points. Tissues and content were homogenized in buffer (1:1 PBS:ethanol with EDTA-free protease inhibitor tablets [Roche]). All samples were analyzed using LC-MS/MS.

[9] = Plasma concentration in rat pharmacokinetic-pharmacodynamic model; type: in vivo
[10] = Plasma levels in rat skin inflammation model; type: in vivo; details: all doses except 300 mg/kg BID, data not shown
Procedure: Other groups received anti–IL-23p19 antibody (Santa Cruz Biotechnology; Catalog #sc-271279LS) or isotype antibody via intraperitoneal injection on Days -1 and 3, as additional controls. On Day 0 through Day 3, rats were anesthetized with isoflurane and injected with 1.5 μg of recombinant rat IL-23 (R&D Systems) in 20 μL PBS, intradermally, in the right ear; controls received an equivalent volume of PBS. Body weight was recorded daily. Thickness of the right (IL-23 injected) ear was measured to the nearest 0.05 mm using calipers (Kroeplin GmbH; Schlüchtern, Germany). Animals were euthanized by CO2 asphyxiation on Day 4. Blood was collected via cardiac puncture, deposited into K2EDTA tubes, and centrifuged at 2000 × g for 20 min. Plasma was collected into 5% volume protease inhibitor and stored at − 80 °C until bioanalysis by LC–MS. For gene expression analyses (IL-22, IL-17A, and IL-17F), the right ear was excised, flash frozen, homogenized, and reverse transcription polymerase chain reaction (RT-PCR) was performed using a TaqMan gene expression array (ThermoFisher Scientific).

[11] = Nonclinical tissue distribution in monkeys; type: in vivo, monkey; details: variety of tissues (e.g. colon, ileum, and skin), nonclinical data
[12] = male Sprague-Dawley rats, 10 mg/kg oral, n=4/timepoint, homogenate, LC-MS/MS
[13] = male Sprague-Dawley rats, 10 mg/kg oral, n=4/timepoint, tissue homogenate, LC-MS/MS
[14] = male, Sprague-Dawley, rat, in vivo, po, 10 mg/kg

T8 sequence (Q14432 whole entry): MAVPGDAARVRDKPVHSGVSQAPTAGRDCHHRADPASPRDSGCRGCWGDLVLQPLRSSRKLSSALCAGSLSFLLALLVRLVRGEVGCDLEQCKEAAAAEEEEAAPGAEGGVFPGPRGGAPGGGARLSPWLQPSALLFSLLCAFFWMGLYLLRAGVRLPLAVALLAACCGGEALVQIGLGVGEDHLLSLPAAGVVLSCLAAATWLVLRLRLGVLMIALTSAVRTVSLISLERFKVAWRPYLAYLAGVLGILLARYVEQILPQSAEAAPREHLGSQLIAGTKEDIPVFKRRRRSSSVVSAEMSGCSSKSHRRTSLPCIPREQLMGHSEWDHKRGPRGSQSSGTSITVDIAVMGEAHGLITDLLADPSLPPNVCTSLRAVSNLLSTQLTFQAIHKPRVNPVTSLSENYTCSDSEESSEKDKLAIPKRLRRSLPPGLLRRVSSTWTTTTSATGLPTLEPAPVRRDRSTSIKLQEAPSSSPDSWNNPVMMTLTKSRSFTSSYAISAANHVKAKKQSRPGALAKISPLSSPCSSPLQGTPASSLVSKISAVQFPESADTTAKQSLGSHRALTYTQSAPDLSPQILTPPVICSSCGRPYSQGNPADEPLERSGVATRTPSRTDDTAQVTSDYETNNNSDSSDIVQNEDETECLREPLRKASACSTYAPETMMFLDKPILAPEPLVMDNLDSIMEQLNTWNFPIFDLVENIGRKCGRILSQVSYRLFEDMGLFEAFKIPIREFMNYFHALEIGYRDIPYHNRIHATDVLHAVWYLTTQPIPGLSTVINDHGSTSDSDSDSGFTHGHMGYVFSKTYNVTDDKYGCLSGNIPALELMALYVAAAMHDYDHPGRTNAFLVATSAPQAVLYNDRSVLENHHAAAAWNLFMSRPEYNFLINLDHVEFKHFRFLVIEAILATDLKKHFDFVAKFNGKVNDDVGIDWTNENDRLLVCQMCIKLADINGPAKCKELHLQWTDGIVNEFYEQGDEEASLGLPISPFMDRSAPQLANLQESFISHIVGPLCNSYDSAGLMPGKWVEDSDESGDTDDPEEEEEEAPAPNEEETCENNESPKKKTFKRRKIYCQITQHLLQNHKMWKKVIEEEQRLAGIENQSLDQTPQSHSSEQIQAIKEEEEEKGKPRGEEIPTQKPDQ
T7 sequence (Q01959 whole entry): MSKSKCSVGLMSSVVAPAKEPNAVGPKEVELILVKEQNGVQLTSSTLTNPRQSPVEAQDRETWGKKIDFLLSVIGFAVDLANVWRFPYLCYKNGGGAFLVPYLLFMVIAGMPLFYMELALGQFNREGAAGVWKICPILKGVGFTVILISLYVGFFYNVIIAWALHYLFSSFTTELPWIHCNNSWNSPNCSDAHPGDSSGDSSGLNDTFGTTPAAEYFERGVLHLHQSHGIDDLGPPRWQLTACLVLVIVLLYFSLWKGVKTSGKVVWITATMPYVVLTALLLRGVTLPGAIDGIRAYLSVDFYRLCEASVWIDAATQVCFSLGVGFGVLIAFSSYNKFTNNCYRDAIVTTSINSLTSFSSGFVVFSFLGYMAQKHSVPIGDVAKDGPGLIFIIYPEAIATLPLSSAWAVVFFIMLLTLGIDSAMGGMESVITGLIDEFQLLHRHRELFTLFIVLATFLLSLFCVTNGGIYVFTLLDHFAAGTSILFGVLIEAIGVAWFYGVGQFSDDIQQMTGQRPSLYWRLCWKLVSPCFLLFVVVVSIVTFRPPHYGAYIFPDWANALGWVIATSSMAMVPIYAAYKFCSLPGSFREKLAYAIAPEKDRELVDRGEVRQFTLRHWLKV
T3 sequence (P21728 whole entry): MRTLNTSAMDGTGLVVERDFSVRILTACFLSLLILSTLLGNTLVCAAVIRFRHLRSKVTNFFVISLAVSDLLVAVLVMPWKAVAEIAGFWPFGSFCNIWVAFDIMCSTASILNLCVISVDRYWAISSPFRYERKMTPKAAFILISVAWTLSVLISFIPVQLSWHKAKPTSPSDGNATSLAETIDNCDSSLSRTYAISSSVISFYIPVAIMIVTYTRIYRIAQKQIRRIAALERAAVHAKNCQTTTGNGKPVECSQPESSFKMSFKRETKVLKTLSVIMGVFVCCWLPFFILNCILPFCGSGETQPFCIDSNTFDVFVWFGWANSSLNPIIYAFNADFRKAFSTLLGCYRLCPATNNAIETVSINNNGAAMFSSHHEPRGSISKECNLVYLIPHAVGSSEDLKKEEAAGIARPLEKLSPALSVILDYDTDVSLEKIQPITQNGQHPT
T5 sequence (P20309 whole entry): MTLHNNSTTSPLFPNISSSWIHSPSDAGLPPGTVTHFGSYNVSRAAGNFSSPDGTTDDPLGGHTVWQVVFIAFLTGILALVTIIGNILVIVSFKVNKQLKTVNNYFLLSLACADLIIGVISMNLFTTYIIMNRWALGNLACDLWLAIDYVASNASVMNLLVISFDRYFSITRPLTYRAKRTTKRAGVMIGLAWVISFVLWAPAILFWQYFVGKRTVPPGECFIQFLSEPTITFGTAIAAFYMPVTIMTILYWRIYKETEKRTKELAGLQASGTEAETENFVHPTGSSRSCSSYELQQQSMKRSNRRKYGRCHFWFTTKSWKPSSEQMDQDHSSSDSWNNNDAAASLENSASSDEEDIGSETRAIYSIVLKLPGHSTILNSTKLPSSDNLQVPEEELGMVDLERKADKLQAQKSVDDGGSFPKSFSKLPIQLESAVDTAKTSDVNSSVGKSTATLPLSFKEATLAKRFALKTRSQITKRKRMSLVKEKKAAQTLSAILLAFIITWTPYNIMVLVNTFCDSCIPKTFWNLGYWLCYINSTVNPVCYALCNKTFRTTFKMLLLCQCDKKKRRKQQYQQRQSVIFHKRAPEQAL
T9 sequence (P22303 32-614): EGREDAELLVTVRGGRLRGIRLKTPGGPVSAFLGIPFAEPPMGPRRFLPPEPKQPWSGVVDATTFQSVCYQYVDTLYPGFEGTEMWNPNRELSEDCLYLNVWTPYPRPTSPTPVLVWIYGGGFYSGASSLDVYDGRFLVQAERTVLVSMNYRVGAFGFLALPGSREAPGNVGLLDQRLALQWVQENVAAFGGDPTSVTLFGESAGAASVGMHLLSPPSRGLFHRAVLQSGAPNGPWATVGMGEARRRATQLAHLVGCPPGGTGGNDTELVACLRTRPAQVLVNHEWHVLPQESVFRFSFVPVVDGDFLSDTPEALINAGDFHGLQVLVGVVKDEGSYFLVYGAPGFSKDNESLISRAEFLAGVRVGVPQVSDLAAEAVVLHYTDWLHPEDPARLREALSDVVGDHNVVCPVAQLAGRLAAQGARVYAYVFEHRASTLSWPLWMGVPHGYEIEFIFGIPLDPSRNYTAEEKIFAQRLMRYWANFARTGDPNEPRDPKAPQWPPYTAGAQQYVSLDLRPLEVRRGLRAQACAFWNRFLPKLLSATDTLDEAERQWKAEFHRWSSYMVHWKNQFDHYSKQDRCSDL
T2 sequence (P07550 whole entry): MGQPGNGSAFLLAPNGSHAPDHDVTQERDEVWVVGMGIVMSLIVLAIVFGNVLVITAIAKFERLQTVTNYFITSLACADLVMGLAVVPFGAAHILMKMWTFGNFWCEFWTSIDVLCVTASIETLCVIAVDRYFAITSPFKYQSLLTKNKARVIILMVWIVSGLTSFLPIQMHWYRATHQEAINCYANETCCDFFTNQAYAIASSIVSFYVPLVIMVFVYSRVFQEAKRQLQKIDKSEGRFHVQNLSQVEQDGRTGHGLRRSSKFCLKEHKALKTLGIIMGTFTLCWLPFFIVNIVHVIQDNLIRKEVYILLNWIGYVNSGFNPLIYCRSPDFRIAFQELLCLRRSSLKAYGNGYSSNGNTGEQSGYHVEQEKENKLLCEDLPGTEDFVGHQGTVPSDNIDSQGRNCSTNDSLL
T4 sequence (P14416 1-414 isoform P14416-2): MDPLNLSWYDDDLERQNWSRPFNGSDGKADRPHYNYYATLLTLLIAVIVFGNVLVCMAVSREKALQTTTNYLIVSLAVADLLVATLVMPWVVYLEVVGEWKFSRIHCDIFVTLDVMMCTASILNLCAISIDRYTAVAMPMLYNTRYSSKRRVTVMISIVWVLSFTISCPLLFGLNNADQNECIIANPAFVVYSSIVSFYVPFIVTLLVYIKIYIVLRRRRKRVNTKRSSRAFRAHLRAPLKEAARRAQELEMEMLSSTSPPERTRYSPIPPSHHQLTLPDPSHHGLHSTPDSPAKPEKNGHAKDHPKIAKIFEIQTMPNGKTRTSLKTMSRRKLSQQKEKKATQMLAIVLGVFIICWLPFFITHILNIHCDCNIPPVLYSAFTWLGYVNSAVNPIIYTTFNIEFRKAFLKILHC
T1 sequence (P29274 whole entry): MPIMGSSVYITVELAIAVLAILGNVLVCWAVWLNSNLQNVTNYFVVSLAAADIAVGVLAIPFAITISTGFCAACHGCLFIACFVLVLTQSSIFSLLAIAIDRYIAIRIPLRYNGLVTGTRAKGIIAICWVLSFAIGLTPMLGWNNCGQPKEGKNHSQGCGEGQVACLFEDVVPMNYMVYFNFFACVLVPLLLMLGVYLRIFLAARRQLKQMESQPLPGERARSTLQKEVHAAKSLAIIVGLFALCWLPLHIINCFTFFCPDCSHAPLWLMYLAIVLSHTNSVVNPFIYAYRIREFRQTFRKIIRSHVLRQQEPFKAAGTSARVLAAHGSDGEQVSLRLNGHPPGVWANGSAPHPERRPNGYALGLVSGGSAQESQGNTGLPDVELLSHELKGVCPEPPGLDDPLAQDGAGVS

CC(=O)NCCCC[C@@H]1NC(=O)[C@H](Cc2c[nH]c3c(C)cccc23)NC(=O)[C@H]([C@@H](C)O)NC(=O)[C@H](CC(N)=O)NC(=O)[C@@H](NC(C)=O)C(C)(C)SSC(C)(C)[C@@H](C(=O)N[C@@H](Cc2ccc(OCCN)cc2)C(=O)N[C@@H](Cc2ccc3ccccc3c2)C(=O)NC2(C(=O)N[C@@H](CCC(=O)O)C(=O)N[C@@H](CC(N)=O)C(=O)N[C@@H](Cc3cccnc3)C(=O)N(C)CC(N)=O)CCOCC2)NC1=O [JNJ-77242113, S^3,1,S^3,6-cyclo[N-acetyl-3-sulfanyl-L-valyl-L-asparaginyl-L-threonyl-7-methyl-L-tryptophyl-N^6-acetyl-L-lysyl-3-sulfanyl-L-valyl-O-(2-aminoethyl)-L-tyrosyl-3-(naphthalen-2-yl)-L-alanyl-4-aminooxan-4-carbonyl-L-α-glutamyl-L-asparaginyl-3-(pyridin-3-yl)-L-alanyl-N^2-methylglycinamide]]
inhibition at 10 µM ([1]; 1st run, read-out: Percent inhibition of control ligand binding, A2A, 1st run): -8.7% | inhibition at 10 µM ([1]; 2nd run, read-out: Percent inhibition of control ligand binding, A2A, 2nd run): -6.2% | inhibition at 10 µM ([1]; mean of 2 runs, read-out: Percent inhibition of control ligand binding, A2A, Mean): -7.5% | inhibition at 10 µM ([2]; 1st run, read-out: Percent inhibition of control ligand binding, β2, 1st run): -8.2% | inhibition at 10 µM ([2]; 2nd run, read-out: Percent inhibition of control ligand binding, β2, 2nd run): -0.6% | inhibition at 10 µM ([2]; mean of 2 runs, read-out: Percent inhibition of control ligand binding, β2, Mean): -4.4% | inhibition at 10 µM ([3]; 1st run, read-out: Percent inhibition of control ligand binding, D1, 1st run): 2.2% | inhibition at 10 µM ([3]; 2nd run, read-out: Percent inhibition of control ligand binding, D1, 2nd run): 3.7% | inhibition at 10 µM ([3]; mean of 2 runs, read-out: Percent inhibition of control ligand binding, D1, Mean): 2.9% | inhibition at 10 µM ([4]; 1st run, read-out: Percent inhibition of control ligand binding, D2S, 1st run): -6.6% | inhibition at 10 µM ([4]; 2nd run, read-out: Percent inhibition of control ligand binding, D2S, 2nd run): -6.6% | inhibition at 10 µM ([4]; mean of 2 runs, read-out: Percent inhibition of control ligand binding, D2S, Mean): -6.6% | inhibition at 10 µM ([5]; 1st run, read-out: Percent inhibition of control ligand binding, M3, 1st run): -10.5% | inhibition at 10 µM ([5]; 2nd run, read-out: Percent inhibition of control ligand binding, M3, 2nd run): -5.2% | inhibition at 10 µM ([5]; mean of 2 runs, read-out: Percent inhibition of control ligand binding, M3, Mean): -7.8% | inhibition at 10 µM ([6]; 1st run, read-out: Percent inhibition of control ligand binding, 5-HT1A, 1st run): -5.6% | inhibition at 10 µM ([6]; 2nd run, read-out: Percent inhibition of control ligand binding, 5-HT1A, 2nd run): 2.8% | inhibition at 10 µM ([6]; mean of 2 runs, read-out: Percent inhibition of control ligand binding, 5-HT1A, Mean): -1.4% | inhibition at 10 µM (Dopamine transporter; 1st run, read-out: Percent inhibition of control ligand binding, Dopamine transporter, 1st run): -3.6% | inhibition at 10 µM (Dopamine transporter; 2nd run, read-out: Percent inhibition of control ligand binding, Dopamine transporter, 2nd run): -4.4% | inhibition at 10 µM (Dopamine transporter; mean of 2 runs, read-out: Percent inhibition of control ligand binding, Dopamine transporter, Mean): -4% | inhibition at 10 µM ([7]; 1st run, read-out: Percent inhibition of control ligand binding, PDE3A, 1st run): -30.6% | inhibition at 10 µM ([7]; 2nd run, read-out: Percent inhibition of control ligand binding, PDE3A, 2nd run): -44.7% | inhibition at 10 µM ([7]; mean of 2 runs, read-out: Percent inhibition of control ligand binding, PDE3A, Mean): -37.6% | inhibition at 10 µM (acetylcholinesterase; 1st run, read-out: Percent inhibition of control ligand binding, acetylcholinesterase, 1st run): 9.8% | inhibition at 10 µM (acetylcholinesterase; 2nd run, read-out: Percent inhibition of control ligand binding, acetylcholinesterase, 2nd run): 2.2% | inhibition at 10 µM (acetylcholinesterase; mean of 2 runs, read-out: Percent inhibition of control ligand binding, acetylcholinesterase, Mean): 6% | AUClast, colon content [8, 12]: 1,700,000 ng·hr/g | Cmax, colon content [8, 12]: 371,000 ng/g | Tmax, colon content [8, 12]: 6 h | AUClast, colon [8, 13]: 5,670 ng·hr/g | Cmax, colon [8, 13]: 1,380 ng/g | Tmax, colon [8, 13]: 6 h | AUC(0-t) [8, 14]: 23.1 ng·h/mL | Cmax [8, 14]: 6.49 ng/mL | Tmax [8, 14]: 3 h | Oral bioavailability ([8]; rat, oral dosing, data not shown): low oral bioavailability | Mean dilution-adjusted exposure at 2 h (Tmax) ([9]; 10 mg/kg oral, plasma LC–MS/MS, dilution adjusted): 660 pM | Exposures (in words) ([9]; in vivo oral doses less than 10 mg/kg): below the limit of quantification | Plasma levels 16 h after the final dose [10]: below the limit of quantification | Tissue distribution (in words) [11]: distributed freely

Source: publication PMC11289455 (Scientific Reports, 2024)
